Assay results published in ChEMBL document CHEMBL3044818, “Fungicide resistance status in French populations of the wheat eyespot fungi Oculimacula acuformis and Oculimacula yallundae” (Pest Manag Sci, 2013).
Converted amounts (≈) assume the structure as drawn.

test system: Oculimacula yallundae; test: Resistance index, ratio of EC50 for sterol 14alpha-demethylation inhibitor-resistant Oculimacula yallundae TriR2 to EC50 for wild type Oculimacula yallundae TriS by mycelial growth inhibition assay; format: functional; details: not given

| SMILES | Ratio EC50 |
| --- | --- |
| Clc1ccc(C2(Cn3cncn3)CC(Br)CO2)c(Cl)c1 (centres undefined) [BROMUCONAZOLE] | 10 |
| Fc1ccc([C@]2(Cn3cncn3)O[C@H]2c2ccccc2Cl)cc1 (relative stereo) [EPOXICONAZOLE] | 3.3 |

test system: Oculimacula yallundae; test: Resistance index, ratio of EC50 for sterol 14alpha-demethylation inhibitor-resistant Oculimacula yallundae TriR2 to EC50 for sterol 14alpha-demethylation inhibitor-resistant Oculimacula yallundae TriR1 by mycelial growth inhibition assay; format: functional; details: not given

| SMILES | Ratio EC50 |
| --- | --- |
| Clc1ccc(C2(Cn3cncn3)CC(Br)CO2)c(Cl)c1 (centres undefined) [BROMUCONAZOLE] | 2 |
| Fc1ccc([C@]2(Cn3cncn3)O[C@H]2c2ccccc2Cl)cc1 (relative stereo) [EPOXICONAZOLE] | 1 |

test system: Oculimacula yallundae; test: Resistance index, ratio of EC50 for sterol 14alpha-demethylation inhibitor-resistant Oculimacula yallundae MDR to EC50 for wild type Oculimacula yallundae TriS by mycelial growth inhibition assay; format: functional; details: not given

| SMILES | Ratio EC50 |
| --- | --- |
| Clc1ccc(C2(Cn3cncn3)CC(Br)CO2)c(Cl)c1 (centres undefined) [BROMUCONAZOLE] | 10 |
| Fc1ccc([C@]2(Cn3cncn3)O[C@H]2c2ccccc2Cl)cc1 (relative stereo) [EPOXICONAZOLE] | 6.7 |

test system: Oculimacula yallundae; test: Resistance index, ratio of EC50 for prochloraz-resistant Oculimacula yallundae isolate ProR1 to EC50 for prochloraz-susceptible Oculimacula yallundae isolate ProS by germ tube elongation inhibition assay; format: functional; details: not given

| SMILES | Ratio EC50 |
| --- | --- |
| Clc1ccc(C2(Cn3cncn3)CC(Br)CO2)c(Cl)c1 (centres undefined) [BROMUCONAZOLE] | 0.6 |
| Fc1ccc([C@]2(Cn3cncn3)O[C@H]2c2ccccc2Cl)cc1 (relative stereo) [EPOXICONAZOLE] | 2 |

test system: Oculimacula yallundae; test: Resistance index, ratio of EC50 for prochloraz-resistant Oculimacula yallundae isolate ProR2 to EC50 for prochloraz-susceptible Oculimacula yallundae isolate ProS by mycelial growth inhibition assay; format: functional; details: not given

| SMILES | Ratio EC50 |
| --- | --- |
| Clc1ccc(C2(Cn3cncn3)CC(Br)CO2)c(Cl)c1 (centres undefined) [BROMUCONAZOLE] | 0.5 |
| Fc1ccc([C@]2(Cn3cncn3)O[C@H]2c2ccccc2Cl)cc1 (relative stereo) [EPOXICONAZOLE] | 5 |

test system: Oculimacula yallundae; test: Resistance index, ratio of EC50 for prochloraz-resistant Oculimacula yallundae isolate ProR1 to EC50 for prochloraz-susceptible Oculimacula yallundae isolate ProS by mycelial growth inhibition assay; format: functional; details: not given

| SMILES | Ratio EC50 |
| --- | --- |
| Clc1ccc(C2(Cn3cncn3)CC(Br)CO2)c(Cl)c1 (centres undefined) [BROMUCONAZOLE] | 0.3 |
| Fc1ccc([C@]2(Cn3cncn3)O[C@H]2c2ccccc2Cl)cc1 (relative stereo) [EPOXICONAZOLE] | 3.3 |

test system: Oculimacula yallundae; test: Fungicidal activity against prochloraz-susceptible Oculimacula yallundae isolate ProS assessed as inhibition of germ tube elongation incubated at 19 degC in dark for 48 hr; format: functional, organism-based; details: not given

| SMILES | EC50 [µg/mL] |
| --- | --- |
| Clc1ccc(C2(Cn3cncn3)CC(Br)CO2)c(Cl)c1 (centres undefined) [BROMUCONAZOLE] | 0.8 (≈ 2.12 µM) |
| Fc1ccc([C@]2(Cn3cncn3)O[C@H]2c2ccccc2Cl)cc1 (relative stereo) [EPOXICONAZOLE] | 0.3 (≈ 0.91 µM) |

test system: Oculimacula yallundae; test: Fungicidal activity against prochloraz-susceptible Oculimacula yallundae isolate ProS assessed as inhibition of mycelial growth in presence of 10 g glucose incubated at 19 degC in dark for 4 weeks; format: functional, organism-based; details: 672 h

| SMILES | EC50 [µg/mL] |
| --- | --- |
| Clc1ccc(C2(Cn3cncn3)CC(Br)CO2)c(Cl)c1 (centres undefined) [BROMUCONAZOLE] | 1.5 |
| Fc1ccc([C@]2(Cn3cncn3)O[C@H]2c2ccccc2Cl)cc1 (relative stereo) [EPOXICONAZOLE] | 0.3 |

test system: Oculimacula yallundae; test: Resistance index, ratio of EC50 for sterol 14alpha-demethylation inhibitor-resistant Oculimacula yallundae MDR to EC50 for sterol 14alpha-demethylation inhibitor-resistant Oculimacula yallundae TriR1 by germ tube elongation assay; format: functional; details: not given

| SMILES | Ratio EC50 |
| --- | --- |
| Clc1ccc(C2(Cn3cncn3)CC(Br)CO2)c(Cl)c1 (centres undefined) [BROMUCONAZOLE] | 2.5 |
| Fc1ccc([C@]2(Cn3cncn3)O[C@H]2c2ccccc2Cl)cc1 (relative stereo) [EPOXICONAZOLE] | 5 |

test system: Oculimacula yallundae; test: Resistance index, ratio of EC50 for sterol 14alpha-demethylation inhibitor-resistant Oculimacula yallundae MDR to EC50 for wild type Oculimacula yallundae TriS by germ tube elongation assay; format: functional; details: not given

| SMILES | Ratio EC50 |
| --- | --- |
| Clc1ccc(C2(Cn3cncn3)CC(Br)CO2)c(Cl)c1 (centres undefined) [BROMUCONAZOLE] | 83 |
| Fc1ccc([C@]2(Cn3cncn3)O[C@H]2c2ccccc2Cl)cc1 (relative stereo) [EPOXICONAZOLE] | 150 |

test system: Oculimacula yallundae; test: Resistance index, ratio of EC50 for sterol 14alpha-demethylation inhibitor-resistant Oculimacula yallundae TriR2 to EC50 for sterol 14alpha-demethylation inhibitor-resistant Oculimacula yallundae TriR1 by germ tube elongation assay; format: functional; details: not given

| SMILES | Ratio EC50 |
| --- | --- |
| Clc1ccc(C2(Cn3cncn3)CC(Br)CO2)c(Cl)c1 (centres undefined) [BROMUCONAZOLE] | 1.2 |
| Fc1ccc([C@]2(Cn3cncn3)O[C@H]2c2ccccc2Cl)cc1 (relative stereo) [EPOXICONAZOLE] | 2 |

test system: Oculimacula yallundae; test: Resistance index, ratio of EC50 for sterol 14alpha-demethylation inhibitor-resistant Oculimacula yallundae TriR2 to EC50 for wild type Oculimacula yallundae TriS by germ tube elongation assay; format: functional; details: not given

| SMILES | Ratio EC50 |
| --- | --- |
| Clc1ccc(C2(Cn3cncn3)CC(Br)CO2)c(Cl)c1 (centres undefined) [BROMUCONAZOLE] | 40 |
| Fc1ccc([C@]2(Cn3cncn3)O[C@H]2c2ccccc2Cl)cc1 (relative stereo) [EPOXICONAZOLE] | 60 |

test system: Oculimacula yallundae; test: Resistance index, ratio of EC50 for sterol 14alpha-demethylation inhibitor-resistant Oculimacula yallundae TriR1 to EC50 for wild type Oculimacula yallundae TriS by germ tube elongation assay; format: functional; details: not given

| SMILES | Ratio EC50 |
| --- | --- |
| Clc1ccc(C2(Cn3cncn3)CC(Br)CO2)c(Cl)c1 (centres undefined) [BROMUCONAZOLE] | 33 |
| Fc1ccc([C@]2(Cn3cncn3)O[C@H]2c2ccccc2Cl)cc1 (relative stereo) [EPOXICONAZOLE] | 30 |

test system: Oculimacula yallundae; test: Resistance index, ratio of EC50 for sterol 14alpha-demethylation inhibitor-resistant Oculimacula yallundae MDR to EC50 for sterol 14alpha-demethylation inhibitor-resistant Oculimacula yallundae TriR1 by mycelial growth inhibition assay; format: functional; details: not given

| SMILES | Ratio EC50 |
| --- | --- |
| Clc1ccc(C2(Cn3cncn3)CC(Br)CO2)c(Cl)c1 (centres undefined) [BROMUCONAZOLE] | 2 |
| Fc1ccc([C@]2(Cn3cncn3)O[C@H]2c2ccccc2Cl)cc1 (relative stereo) [EPOXICONAZOLE] | 2 |

test system: Oculimacula yallundae; test: Resistance index, ratio of EC50 for sterol 14alpha-demethylation inhibitor-resistant Oculimacula yallundae TriR1 to EC50 for wild type Oculimacula yallundae TriS by mycelial growth inhibition assay; format: functional; details: not given

| SMILES | Ratio EC50 |
| --- | --- |
| Clc1ccc(C2(Cn3cncn3)CC(Br)CO2)c(Cl)c1 (centres undefined) [BROMUCONAZOLE] | 5 |
| Fc1ccc([C@]2(Cn3cncn3)O[C@H]2c2ccccc2Cl)cc1 (relative stereo) [EPOXICONAZOLE] | 3.3 |

test system: not listed separately; test: Selectivity index, ratio of EC50 for Oculimacula acuformis to EC50 for Oculimacula yallundae in presence of 10 g glucose by mycelial growth inhibition assay; format: functional; details: not given

| SMILES | Ratio EC50 |
| --- | --- |
| Clc1ccc(C2(Cn3cncn3)CC(Br)CO2)c(Cl)c1 (centres undefined) [BROMUCONAZOLE] | 8.5 |
| Fc1ccc([C@]2(Cn3cncn3)O[C@H]2c2ccccc2Cl)cc1 (relative stereo) [EPOXICONAZOLE] | 2 |

test system: Oculimacula yallundae; test: Fungicidal activity against Oculimacula yallundae assessed as inhibition of mycelial growth in presence of 10 g glucose incubated at 19 degC in dark for 4 weeks; format: functional, organism-based; details: 672 h

| SMILES | EC50 [µg/mL] |
| --- | --- |
| Clc1ccc(C2(Cn3cncn3)CC(Br)CO2)c(Cl)c1 (centres undefined) [BROMUCONAZOLE] | 0.2 |
| Fc1ccc([C@]2(Cn3cncn3)O[C@H]2c2ccccc2Cl)cc1 (relative stereo) [EPOXICONAZOLE] | 0.15 |

test system: Oculimacula acuformis; test: Fungicidal activity against Oculimacula acuformis assessed as inhibition of mycelial growth in presence of 10 g glucose incubated at 19 degC in dark for 4 weeks; format: functional, organism-based; details: 672 h

| SMILES | EC50 [µg/mL] |
| --- | --- |
| Clc1ccc(C2(Cn3cncn3)CC(Br)CO2)c(Cl)c1 (centres undefined) [BROMUCONAZOLE] | 1.5 |
| Fc1ccc([C@]2(Cn3cncn3)O[C@H]2c2ccccc2Cl)cc1 (relative stereo) [EPOXICONAZOLE] | 0.3 |

test system: not listed separately; test: Selectivity index, ratio of EC50 for Oculimacula acuformis to EC50 for Oculimacula yallundae by germ tube elongation inhibition assay; format: functional; details: not given

| SMILES | Ratio EC50 |
| --- | --- |
| Clc1ccc(C2(Cn3cncn3)CC(Br)CO2)c(Cl)c1 (centres undefined) [BROMUCONAZOLE] | 27 |
| Fc1ccc([C@]2(Cn3cncn3)O[C@H]2c2ccccc2Cl)cc1 (relative stereo) [EPOXICONAZOLE] | 15 |

test system: Oculimacula yallundae; test: Fungicidal activity against Oculimacula yallundae assessed as inhibition of germ tube elongation incubated at 19 degC in dark for 48 hr; format: functional, organism-based; details: not given

| SMILES | EC50 [µg/mL] |
| --- | --- |
| Clc1ccc(C2(Cn3cncn3)CC(Br)CO2)c(Cl)c1 (centres undefined) [BROMUCONAZOLE] | 0.03 (≈ 0.0796 µM) |
| Fc1ccc([C@]2(Cn3cncn3)O[C@H]2c2ccccc2Cl)cc1 (relative stereo) [EPOXICONAZOLE] | 0.02 (≈ 0.0606 µM) |

test system: Oculimacula acuformis; test: Fungicidal activity against Oculimacula acuformis assessed as inhibition of germ tube elongation incubated at 19 degC in dark for 48 hr; format: functional, organism-based; details: not given

| SMILES | EC50 [µg/mL] |
| --- | --- |
| Clc1ccc(C2(Cn3cncn3)CC(Br)CO2)c(Cl)c1 (centres undefined) [BROMUCONAZOLE] | 0.8 (≈ 2.12 µM) |
| Fc1ccc([C@]2(Cn3cncn3)O[C@H]2c2ccccc2Cl)cc1 (relative stereo) [EPOXICONAZOLE] | 0.3 (≈ 0.91 µM) |

test system: Oculimacula yallundae; test: Resistance index, ratio of EC50 for prochloraz-resistant Oculimacula yallundae isolate ProR2 to EC50 for prochloraz-susceptible Oculimacula yallundae isolate ProS by germ tube elongation inhibition assay; format: functional; details: not given

| SMILES | Ratio EC50 |
| --- | --- |
| Clc1ccc(C2(Cn3cncn3)CC(Br)CO2)c(Cl)c1 (centres undefined) [BROMUCONAZOLE] | 1 |
| Fc1ccc([C@]2(Cn3cncn3)O[C@H]2c2ccccc2Cl)cc1 (relative stereo) [EPOXICONAZOLE] | 3 |
